The values that follow come from patent US6423752B1, “Indane dimer compounds with smooth muscle relaxing and/or mast cell stabilizing and/or anti-inflammatory activity” (Venantius Limited, priority 1995, dated 2002).

Structures can show the parent of a compound that is named as a salt. Where two headings read alike, the source gives them in different places.

One assay concerns mast cells. Kind of assay: Histamine release assay (compound 48/80 stimulated mast cells). The format is cell-based, Wistar rats. The conditions noted are these: 2 × 10^−5 M, rat peritoneal mast cells; for inhibition at 20 µM: Rattus norvegicus, Mast cell, read-out: Percentage Inhibition of Histamine Release. Here is the method: (§1) The compounds were assessed for their ability to stabilize mast cell membranes in vitro. Mast cells treated with the compounds and un-treated mast cells were stimulated to release histamine. A reduction in histamine release by the treated cells compared to the untreated cells indicates stabilisation of the membrane. The compounds were assessed for their ability to relax smooth muscle in vitro. Intestinal smooth muscle was stimulated to contract, using calcium chloride and subsequently treated with the compounds, relaxation of the contraction was measured for each compound. The effects of the compounds were also studied on relaxation of guinea-pig tracheal muscle. In the rat paw oedema test, the drugs were administered systemically prior to inducing inflammation by the injection of carageenan below the plantar aponeurosis of the hind paw. The volume of the paw was determined both before and after treatment as an index of oedema. In the mouse ear oedema test, the drugs were administered topically prior to inducing inflammation by the topical application of arachidonic acid. The width of the ear was determined both before and after treatment as an index of oedema.
The buffered salt solution (BSS) was prepared in advance (NaCl 137 mM; KCl 2.7 mM; MgCl2 1.0 mM; CaCl2 0.5 mM, NaH2PO4 0.4 mM; Glucose 5.6 mM; HEPES 10 mM). This was dispensed into test tubes and heated to 37° C., each test tube contained 4.5 ml BSS. The solvent blank was supplemented with 0.5% (v/v) dimethyl sulphoxide (DMSO) or 0.5% (v/v) distilled water (dH2O). The two positive controls were supplemented with 0.5% (v/v) dH2O/2×10^−5M disodium cromoglycate (DSCG) and 0.5% (v/v) DMSO/2×10^−5M DSCG. The test compounds' incubation tubes contained 2×10^−5M test compound/0.5% (v/v) DMSO. The basal release, maximum release and total histamine content incubation tubes contained no additions.
Female Wistar rats (200-300 g) were killed in an atmosphere of saturated CO2. Pre-warmed BSS (10 ml) was injected i.p. and the abdomen was massaged for 3 min. The BSS, with suspended mast cells and other cells, was aspirated following a mid-line incision. The aspirate was centrifuged for 5 min at 400 g and the supernatant removed. The cells were re-suspended in BSS, at 4° C., and centrifuged as before the cells were washed in this manner a total of three times. Following the final wash, the pelleted cells were stored at 4° C., for use as soon as possible.
The cells were re-suspended in 7 ml BSS. From this, 0.5 ml aliquots were transferred to each of the incubation tubes. After 10 min at 37° C. with gentle agitation, Compound 48/80 was added to a final concentration of […], in order to stimulate histamine release. The cell stimulation was stopped after 2 min by the addition of 0.5 ml ice cold BSS, the incubation tubes were transferred to an ice bath. The cell suspensions were centrifuged for 5 min at 400 g. The “total histamine content” tube was placed at 100° C. for 2 min prior to centrifugation. The supernatants were retained for histamine assay.
To 2 ml of supernatant from each tube was added 0.4 ml of 1M NaOH and 0.1 ml oPT (1% (w/v) in methanol). This was incubated at room temperature for 4 min. The reaction was stopped by the addition of 0.2 ml of 3M HCl. The supernatant from each incubation tube was assayed in duplicate and run simultaneously with a standard curve in the range 0-1000 ng/ml. The presence of the fluorescent product of the reaction was measured using a Shimazu RF-1501 spectrofluorophotometer set at λex=360 nm, λem=450 nm.
Each drug was tested on at least five animals (n=5). The results were expressed as a percentage of maximum, compound 48/80 induced, histamine release in the solvent blank sample. Each drug was compared to DSCG on the same tissues. The basal histamine release in untreated cells was noted, expressed as a percentage of the total histamine content of the cells in suspension. […]

The next assay concerns ileum. Kind of assay: Smooth muscle effects: CaCl2 induced contractions of ileum. Also on record: species or system Guinea pigs. The following applies: for inhibition at 3 µM / inhibition at 10 µM / inhibition at 0.3 µM / inhibition at 0.03 µM / inhibition at 1 µM / inhibition at 0.1 µM: Cavia porcellus, read-out: Percentage Inhibition of CaCl2 Induced Contractions. As to the method: as §1
Guinea pigs (350 g approx.), of either sex, were killed in an atmosphere of saturated CO2. The abdomen was opened by a mid-line incision and the small intestine was removed. The trachea was removed and sectioned between the cartilage rings, which were then split through.
Segments of ileum (1-1.5 cm) were suspended in a high potassium, no calcium Krebs buffer (NaCl 160.44 mM); KCl 45 mM; MgCl2 0.54 mM; NaH2PO4 0.89 mM; NaH2CO3 24.9 mM; Glucose 11.1 mM). Tracheal sections were suspended in normal Krebs buffer (NaCl […]; KCl 4.7 mM; CaCl2 2.5 mM; MgCl2 0.54 mM; NaH2PO4 0.89 mM; NaHCO3 24.9 mM; Glucose 11.1 mM). The solutions were maintained at 37° C. by a jacketed organ bath and gassed with 95% O2 and 5% CO2. The tissues were anchored by thread to the bottom of the organ bath and suspended from force displacement transducers under a resting tension of 1 g approx. in the case of ileum and 4 g approx. in the case of trachea. Isotonic contractions were recorded using a MacLab/4e system in conjunction with the Chart 3.3.1 software package. Surplus tissue was stored at 4° C. in Krebs buffer, for a maximum of 48 hours.
Four segments of tissue were suspended and observed concurrently. Contractions were initiated by the addition of 25 μl of 1M CaCl2 (a final concentration of 2.5 mM). The contractions stabilized with time, 10-15 min, and could be maintained for up to 45 min. from the addition of the CaCl2. The tracheal sections were allowed to develop spontaneous resting tension over a period of 30 mins.
Stock solutions of drug were prepared at 10^−3M in 50% (v/v) DMSO. These were diluted to give; 10^−4M in 5% (v/v) DMSO and 10^−5M in 0.5% (v/v) DMSO. In cases of poor solubility the 10^−3M stock was made up in higher concentrations of DMSO. Solvent ‘blank’ solutions were prepared containing 50%, 5% and 0.5% (v/v) DMSO (or as appropriate). […] A second cumulative dose-response assay was carried out using DMSO ‘blank’ solutions only.
Each drug was tested, in duplicate, on at least three different animals (n=3). The results were expressed as percentage inhibition of the CaCl2 induced contraction in the case of ideal tissue and percentage relaxation in the case of tracheal tissue, for each tissue, at each concentration of drug in DMSO. The effect of DMSO, for each tissue at each concentration, was subtracted from the effect of the drug in DMSO, to give the effect of the drug alone. A log dose vs. response curve was plotted for each drug using the mean and the standard error of the mean for the cumulated results.

Where [1] appears, read: 3 × 10^−6 M, guinea pig ileum, DMSO effect subtracted.
Where [2] appears, read: 10^−5 M, guinea pig ileum, DMSO effect subtracted.
[3] abbreviates: 3 × 10^−7 M, guinea pig ileum, DMSO effect subtracted.
Where [4] appears, read: 3 × 10^−8 M, guinea pig ileum, DMSO effect subtracted.
The mark [5] stands for this setting: 10^−6 M, guinea pig ileum, DMSO effect subtracted.
Where [6] appears, read: 10^−7 M, guinea pig ileum, DMSO effect subtracted.

As a reminder, the inhibition is the change of the read-out against control, counted positive when it falls. With `C=CCN(C1CCc2ccccc21)C1CC(=O)c2ccccc21` (centres unmarked) [5C6 BR], the “Percentage Inhibition of Histamine Release” value with mast cells is reported as 78.84%. Moreover, in the assay on ileum (setting [1]), the inhibition at 3 µM turned out to be 8.72%. Further, the inhibition at 10 µM in the assay on ileum (setting [2]) stood at 31.6%.

For the compound `O=C1CC(NC2CCc3ccccc32)c2ccccc21` (centres unmarked) [Compound 5C3, 3-(N-1-indanylamino)-indan-1-one], the “Percentage Inhibition of Histamine Release” value with mast cells worked out at 32.77%. In addition, the inhibition at 3 µM with ileum (setting [1]) came out at 15.1%. For the same compound, the inhibition at 0.3 µM with ileum (setting [3]) came to 3.78%. Further, in the assay with ileum (setting [4]), the inhibition at 0.03 µM amounted to 0.53%. Also, the inhibition at 10 µM in the assay with ileum (setting [2]) is 30%. The inhibition at 1 µM in the assay with ileum (setting [5]) came to 7.21%. The inhibition at 0.1 µM in the assay with ileum (setting [6]) is 2.61%.

As for `OC1CC(NC2CCc3ccccc32)c2ccccc21` (centres unmarked) [Compound 5C4, 3-(N-1-indanylamino)indan-1-ol], the inhibition at 20 µM in the assay with mast cells worked out at 5.68%. The inhibition at 3 µM in the assay on ileum (setting [1]) was 5.08%. For the same compound, the inhibition at 0.3 µM in the assay on ileum (setting [3]) is -0.99%. The inhibition at 0.03 µM in the assay with ileum (setting [4]) is -0.86%. Besides, in the assay with ileum (setting [2]), the inhibition at 10 µM is 19.1%. The inhibition at 1 µM in the assay on ileum (setting [5]) stood at 1.15%. In addition, the inhibition at 0.1 µM in the assay with ileum (setting [6]) is -0.86%.

In the case of `CN(C1CCc2ccccc21)C1CC(=O)c2ccccc21` (centres unmarked) [Compound 5C5, 3-(N-methyl-N-1-indanylamino)-indan-1-one], the inhibition at 20 µM in the assay with mast cells came out at 58.7%. In addition, the inhibition at 3 µM with ileum (setting [1]) amounted to 3.56%. Besides, the inhibition at 0.3 µM in the assay on ileum (setting [3]) came out at 0.43%. Also, in the assay with ileum (setting [4]), the inhibition at 0.03 µM was -0.26%. For the same compound, the inhibition at 10 µM in the assay with ileum (setting [2]) stood at 10.5%. The inhibition at 1 µM with ileum (setting [5]) was found to be 1.56%. For the same compound, in the assay on ileum (setting [6]), the inhibition at 0.1 µM amounted to 0.28%.

Consider `O=C1CC(N(Cc2ccccc2)C2CCc3ccccc32)c2ccccc21` (centres unmarked) [Compound 5C7, 3-(N-benzyl-N-1-indanylamino)-indan-1-one], for which the inhibition at 20 µM with mast cells came out at 24.1%. Further, in the assay on ileum, the inhibition at 0.03 µM is 0.16%, the inhibition at 0.1 µM is -0.44%, the inhibition at 0.3 µM is -0.36% and the inhibition at 1 µM was -1.72%. In the assay with ileum, the inhibition at 3 µM is 0% and the inhibition at 10 µM is 2.06%.

On to `O=C1CC(NC2CCc3ccccc32)c2ccccc21` (centres unmarked) [Compound 5C8, 3-(N-1-indanylamino) -indan-1-one. Hydrochloride], for which, in the assay on mast cells (hydrochloride), the “Percentage Inhibition of Histamine Release” value came to 14.33%.

For the compound `Cc1ccc(S(=O)(=O)N(C2CCc3ccccc32)C2CC(=O)c3ccccc32)cc1` (centres unmarked) [Compound 5C10, N-1-Indanyl-N-3-indan-1-onyl-p-toluenesulfonamide], in the assay on mast cells, the inhibition at 20 µM stood at 40.8%.

In the case of `C=CCN(C1CCc2ccccc21)C1CC(=O)c2ccccc21` (centres unmarked) [Compound 5C11, 3-(N-prop-2-enyl-N-1-indanylamino)-indan-1-one hydrochloride], the “Percentage Inhibition of Histamine Release” value in the assay with mast cells (hydrochloride) turned out to be 90.27%.

As to `O=C1CC(NC2Cc3ccccc3C2)c2ccccc21` (centres unmarked) [Compound 6C4, 3-(N-2-indanylamino)-indan-1-one], the “Percentage Inhibition of Histamine Release” value in the assay with mast cells is on record as 14.92%. Moreover, the “Percentage Inhibition of CaCl2 Induced Contractions” value in the assay with ileum (setting [1]) is 17.11%; with ileum (setting [3]) it was 4.63%; in the assay with ileum (setting [4]) it was 2.16%; in the assay with ileum (setting [2]), 33.46%; in the assay on ileum (setting [5]), 8.84%; with ileum (setting [6]) it was 3.02%.

In the case of `O=C1CC(N(Cc2ccccc2)C2Cc3ccccc3C2)c2ccccc21` (centres unmarked) [Compound 6C8, 3-(N-benzyl-N-2-indanylamino)-indan-1-one], the inhibition at 20 µM with mast cells turned out to be 88.6%. Besides, in the assay with ileum, the inhibition at 0.03 µM worked out at 1.97%, the inhibition at 0.1 µM amounted to 2.94%, the inhibition at 0.3 µM was found to be 3.26% and the inhibition at 1 µM was 4.69%. In the assay on ileum, the inhibition at 3 µM was 11.3% and the inhibition at 10 µM was found to be 31.1%.

Turning to `O=C1CC(NC2Cc3ccccc3C2)c2ccccc21` (centres unmarked) [Compound 6C9, 3-(N-2-indanylamino)indan-1-one. Hydrochloride], the “Percentage Inhibition of Histamine Release” value with mast cells (hydrochloride) is listed as 43.60%. Also, the “Percentage Inhibition of CaCl2 Induced Contractions” value with ileum (3 × 10^−6 M, guinea pig ileum, DMSO effect subtracted, Hydrochloride) is on record as −0.86%; in the assay with ileum (3 × 10^−7 M, guinea pig ileum, DMSO effect subtracted, Hydrochloride), −1.76%; with ileum (3 × 10^−8 M, guinea pig ileum, DMSO effect subtracted, Hydrochloride), 0.31%; with ileum (10^−5 M, guinea pig ileum, DMSO effect subtracted, Hydrochloride), 1.58%; in the assay on ileum (10^−6 M, guinea pig ileum, DMSO effect subtracted, Hydrochloride), −2.94%; in the assay with ileum (10^−7 M, guinea pig ileum, DMSO effect subtracted, Hydrochloride), 0.61%.

Turning to `C=CCN(C1Cc2ccccc2C1)C1CC(=O)c2ccccc21` (centres unmarked) [Compound 6C12, 3-(N-prop-2-enyl-N-2-indanylamino)-indan-1-one hydrochloride], the “Percentage Inhibition of Histamine Release” value with mast cells (hydrochloride) was 91.35%.
